Results on three compounds are retold here after patent publication US10723753B2, “Ras inhibitors and uses thereof” (Dana-Farber Cancer Institute, Inc., priority 2013, dated 2020).

Structures are written as SMILES.

The target of the assay is K-Ras G12C (Homo sapiens, UniProt P01116, G12C). Put plainly: Fluorescence polarization assay of K-Ras G12C binding to Oregon green labelled RBD. Particulars: for EC50: Ras:Raf (RBD) binding, 95% CI given alongside, read-out: EC50 of nucleotide:Ras complex for RBD. An excerpt:
Oregon green (OG) fluorescent dye was coupled to this cysteine in RBD using maleimide chemistry resulting in covalent addition of one OG, as verified by chromatography and mass spectrometry.
This allowed the testing of multiple nucleotides for their ability to induce Ras:Raf binding.

`CCCC(CCC)COC(=O)[C@H](C)NP(=O)(OCCNC(=O)CCl)OP(=O)(O)OC[C@H]1O[C@@H](n2cnc3c(=O)[nH]c(N)nc32)[C@H](O)[C@@H]1O` (stereo partly drawn) [Example 3, (2S)-2-propylpentyl 2-(((((((2R,3S,4R,5R)-5-(2-amino-6-oxo-1H-purin-9(6H)-yl)-3,4-dihydroxytetrahydrofuran-2-yl)methoxy)(hydroxy)phosphoryl)oxy)(2-(2-chloroacetamido)ethoxy)phosphoryl)amino)propanoate]: the “Effect on binding of G12C K-Ras to the RBD protein” value (added at a 1:10 molar ratio to G12C K-Ras prior to the assay) is “appeared to prevent binding”.

For the compound `Nc1nc2c(ncn2[C@@H]2O[C@H](COP(=O)(O)OP(=O)(O)OP(=O)(O)O)[C@@H](O)[C@H]2O)c(=O)[nH]1` [GTP], the “Interaction of ligand-bound K-Ras G12C with RBD” value (fluorescence polarization, OG-labelled RBD, recombinant K-Ras G12C bound to the named ligand) is “higher affinity for RBD than the GDP bound form”. Besides, the EC50 (fluorescence polarization) worked out at 0.026 µM. On to `Nc1nc2c(ncn2[C@@H]2O[C@H](COP(=O)(O)OP(=O)(O)O)[C@@H](O)[C@H]2O)c(=O)[nH]1` [GDP], for which the EC50 (fluorescence polarization) turned out to be 0.108 µM.
